From the NIST ThermoML archive (doi:10.1021/acs.jced.5b00662)
Numbers after ± are expanded uncertainties.

Experiment: xn = mol fraction of the nth substance listed
Details: 100 kPa, Liquid; for speed of sound: Sing-around technique in a fixed-path interferometer; for mass density: Vibrating tube method

COCCOCCO [2-(2-methoxyethoxy)ethanol] + O
Details | mass density [kg/m3] | speed of sound [m/s]
283.15 K, x1 = 0.9373 | – | 1473.4 ± 1.5
283.15 K, x1 = 0.9483 | 1029.62 ± 2 | 1472.6 ± 1.5
283.15 K, x1 = 0.9601 | 1029.5 ± 2 | 1471.2 ± 1.6
283.15 K, x1 = 0.9674 | 1029.29 ± 2 | 1470.8 ± 1.6
283.15 K, x1 = 0.9893 | 1028.84 ± 2 | 1468.4 ± 1.6
283.15 K, x1 = 0.9932 | 1028.73 ± 2 | 1468.6 ± 1.6
288.15 K, x1 = 0.9373 | – | 1455.8 ± 1.5
288.15 K, x1 = 0.9483 | 1025.24 ± 2 | 1455.1 ± 1.5
288.15 K, x1 = 0.9601 | 1025.13 ± 2 | 1453.9 ± 1.6
288.15 K, x1 = 0.9674 | 1024.9 ± 2 | 1453.3 ± 1.6
288.15 K, x1 = 0.9893 | 1024.45 ± 2 | 1451 ± 1.6
288.15 K, x1 = 0.9932 | 1024.35 ± 2 | 1451 ± 1.6
293.15 K, x1 = 0.9373 | – | 1438.7 ± 1.5
293.15 K, x1 = 0.9483 | 1020.87 ± 2 | 1438 ± 1.5
293.15 K, x1 = 0.9601 | 1020.74 ± 2 | 1436.7 ± 1.5
293.15 K, x1 = 0.9674 | 1020.52 ± 2 | 1436.1 ± 1.6
293.15 K, x1 = 0.9893 | 1020.06 ± 2 | 1433.7 ± 1.6
293.15 K, x1 = 0.9932 | 1019.95 ± 2 | 1433.4 ± 1.6
298.15 K, x1 = 0.9373 | – | 1421.6 ± 1.5
298.15 K, x1 = 0.9483 | 1016.47 ± 2 | 1420.8 ± 1.5
298.15 K, x1 = 0.9601 | 1016.34 ± 2 | 1419.5 ± 1.5
298.15 K, x1 = 0.9674 | 1016.12 ± 2 | 1418.9 ± 1.6
298.15 K, x1 = 0.9893 | 1015.65 ± 2 | 1416.4 ± 1.6
298.15 K, x1 = 0.9932 | 1015.55 ± 2 | 1416.1 ± 1.6
303.15 K, x1 = 0.9373 | – | 1404.5 ± 1.5
303.15 K, x1 = 0.9483 | 1012.06 ± 2 | 1403.6 ± 1.5
303.15 K, x1 = 0.9601 | 1011.93 ± 2 | 1402.3 ± 1.5
303.15 K, x1 = 0.9674 | 1011.71 ± 2 | 1401.7 ± 1.6
303.15 K, x1 = 0.9893 | 1011.24 ± 2 | 1399.1 ± 1.6
303.15 K, x1 = 0.9932 | 1011.12 ± 2 | 1398.9 ± 1.6
308.15 K, x1 = 0.9373 | – | 1387.3 ± 1.5
308.15 K, x1 = 0.9483 | 1007.63 ± 2 | 1386.5 ± 1.5
308.15 K, x1 = 0.9601 | 1007.5 ± 2 | 1385.1 ± 1.5
308.15 K, x1 = 0.9674 | 1007.28 ± 2 | 1384.5 ± 1.5
308.15 K, x1 = 0.9893 | 1006.8 ± 2 | 1381.9 ± 1.6
308.15 K, x1 = 0.9932 | 1006.69 ± 2 | 1381.6 ± 1.6
313.15 K, x1 = 0.9373 | – | 1370.3 ± 1.5
313.15 K, x1 = 0.9483 | 1003.19 ± 2 | 1369.4 ± 1.5
313.15 K, x1 = 0.9601 | 1003.06 ± 2 | 1368.1 ± 1.5
313.15 K, x1 = 0.9674 | 1002.83 ± 2 | 1367.5 ± 1.5
313.15 K, x1 = 0.9893 | 1002.35 ± 2 | 1364.9 ± 1.5
313.15 K, x1 = 0.9932 | 1002.24 ± 2 | 1364.6 ± 1.6
323.15 K, x1 = 0.9373 | – | 1336.5 ± 1.5
323.15 K, x1 = 0.9483 | 994.251 ± 2 | 1335.6 ± 1.5
323.15 K, x1 = 0.9601 | 994.119 ± 2 | 1334.3 ± 1.5
323.15 K, x1 = 0.9674 | 993.893 ± 2 | 1333.7 ± 1.5
323.15 K, x1 = 0.9893 | 993.397 ± 2 | 1330.9 ± 1.6
323.15 K, x1 = 0.9932 | 993.288 ± 2 | 1330.3 ± 1.6
333.15 K, x1 = 0.9373 | – | 1302.9 ± 1.5
333.15 K, x1 = 0.9483 | 985.224 ± 2 | 1302.1 ± 1.5
333.15 K, x1 = 0.9601 | 985.089 ± 2 | 1300.7 ± 1.5
333.15 K, x1 = 0.9674 | 984.87 ± 2 | 1300.2 ± 1.5
333.15 K, x1 = 0.9893 | 984.365 ± 2 | 1297.3 ± 1.6
333.15 K, x1 = 0.9932 | 984.259 ± 2 | 1296.7 ± 1.6
343.15 K, x1 = 0.9373 | – | 1269.6 ± 1.5
343.15 K, x1 = 0.9483 | 976.029 ± 2 | 1268.8 ± 1.5
343.15 K, x1 = 0.9601 | 975.972 ± 2 | 1267.4 ± 1.5
343.15 K, x1 = 0.9674 | 975.754 ± 2 | 1266.9 ± 1.5
343.15 K, x1 = 0.9893 | 975.241 ± 2 | 1263.9 ± 1.6
343.15 K, x1 = 0.9932 | 975.146 ± 2 | 1263.3 ± 1.6
